Data on one molecule can be found in patent publication US10590411B2, “Crude biological derivatives competent for nucleic acid detection” (APPLIED BIOSYSTEMS, LLC, priority 2002, dated 2020).

The assay relates to tissue plasminogen activator (t-PA). Briefly: t-PA mRNA level after PMA treatment, one-step real-time RT-PCR on cell lysate. The class given is cell-based. As to conditions: HeLa cells, 100 and 10 nM PMA, 24 hours, normalized to 18S rRNA. As for the experimental part:
FIG. 3. Illustrates an example of measuring the levels of 18S rRNA and tPA mRNA in HeLa cells that were incubated with different concentrations of PMA by one-step, real-time RT-PCR in the ABI 7700. The cells were processed in 96-well plates using the methods of the invention.
Cells were grown overnight in 0.2 ml DME media with 10% FBS with equal number of cells in each well of a 96-well plate. After an overnight incubation, phorbol myristate acetate (PMA) is added to final concentrations of 100, 10, 1, 0.1, and 0 nM in the growth medium in replicates of eight. The cells were incubated at 37° C. for 24 hours. The 96-well plate and lid were placed on the Packard MultiPROBE® II HT Liquid Handling System from PerkinElmer Life Sciences on the proper deck positions. All proceeding steps were entered into the WinPrep for automation. The growth medium was removed and the cells washed with 1×PBS. A volume of 0.1 ml Cell Lysis Buffer is added to each well. The plate was moved to a heating tile, for example, a tile at 75°, and incubated for 10 minutes. […] The plate was shaken for 2 minutes. PMSF can be used when the heating tile cannot heat the sample to 75° C. to inactivate the proteinase K. Two μl DNase I (2 U/μl) was added to each well and the plate was moved to a 37° C. heating tile. The plate was incubated for 15 minutes while shaking. […] The plate was ready for one-step RT-PCR. […]

Regarding `CCCCCCCCCCCCCC(=O)O[C@@H]1[C@@H](C)[C@@]2(O)[C@@H](C=C(CO)C[C@]3(O)C(=O)C(C)=C[C@@H]23)[C@@H]2C(C)(C)[C@]12OC(C)=O` [PMA, phorbol myristate acetate], the “stimulation of t-PA” value is about 29 fold.
